Laboratory results published in ChEMBL document CHEMBL4024737, “Iodine catalyzed three component synthesis of 1-((2-hydroxy naphthalen-1-yl)(phenyl)(methyl))pyrrolidin-2-one derivatives: Rationale as potent PI3K inhibitors and anticancer agents” (Bioorg Med Chem Lett, 2017).
Active and inactive are the calls of the source. The rule behind the calls is not given here.

Tests used:
[1] = target: T1, Phosphatidylinositol 4,5-bisphosphate 3-kinase catalytic subunit alpha isoform (Homo sapiens, UniProt P42336); assay: Inhibition of PI3K p110alpha (unknown origin) using PIP2 as substrate preincubated for 10 mins followed by substrate addition measured after 1 hr
[2] = target: T1, Phosphatidylinositol 4,5-bisphosphate 3-kinase catalytic subunit alpha isoform; assay: Inhibition of PI3K p110alpha (unknown origin) assessed as residual activity using PIP2 as substrate preincubated for 10 mins followed by substrate addition measured after 1 hr relative to control; set-up: concentration or dose not given beside the values
HCT-116 = assay: Growth inhibition of human HCT116 cells by MTT assay; format: functional, cell-based; details: for IC50: Homo sapiens, HCT-116
MCF7 = assay: Growth inhibition of human MCF7 cells by MTT assay; format: functional, cell-based; details: for IC50: Homo sapiens, MCF7

T1 sequence (P42336 whole entry, canonical isoform): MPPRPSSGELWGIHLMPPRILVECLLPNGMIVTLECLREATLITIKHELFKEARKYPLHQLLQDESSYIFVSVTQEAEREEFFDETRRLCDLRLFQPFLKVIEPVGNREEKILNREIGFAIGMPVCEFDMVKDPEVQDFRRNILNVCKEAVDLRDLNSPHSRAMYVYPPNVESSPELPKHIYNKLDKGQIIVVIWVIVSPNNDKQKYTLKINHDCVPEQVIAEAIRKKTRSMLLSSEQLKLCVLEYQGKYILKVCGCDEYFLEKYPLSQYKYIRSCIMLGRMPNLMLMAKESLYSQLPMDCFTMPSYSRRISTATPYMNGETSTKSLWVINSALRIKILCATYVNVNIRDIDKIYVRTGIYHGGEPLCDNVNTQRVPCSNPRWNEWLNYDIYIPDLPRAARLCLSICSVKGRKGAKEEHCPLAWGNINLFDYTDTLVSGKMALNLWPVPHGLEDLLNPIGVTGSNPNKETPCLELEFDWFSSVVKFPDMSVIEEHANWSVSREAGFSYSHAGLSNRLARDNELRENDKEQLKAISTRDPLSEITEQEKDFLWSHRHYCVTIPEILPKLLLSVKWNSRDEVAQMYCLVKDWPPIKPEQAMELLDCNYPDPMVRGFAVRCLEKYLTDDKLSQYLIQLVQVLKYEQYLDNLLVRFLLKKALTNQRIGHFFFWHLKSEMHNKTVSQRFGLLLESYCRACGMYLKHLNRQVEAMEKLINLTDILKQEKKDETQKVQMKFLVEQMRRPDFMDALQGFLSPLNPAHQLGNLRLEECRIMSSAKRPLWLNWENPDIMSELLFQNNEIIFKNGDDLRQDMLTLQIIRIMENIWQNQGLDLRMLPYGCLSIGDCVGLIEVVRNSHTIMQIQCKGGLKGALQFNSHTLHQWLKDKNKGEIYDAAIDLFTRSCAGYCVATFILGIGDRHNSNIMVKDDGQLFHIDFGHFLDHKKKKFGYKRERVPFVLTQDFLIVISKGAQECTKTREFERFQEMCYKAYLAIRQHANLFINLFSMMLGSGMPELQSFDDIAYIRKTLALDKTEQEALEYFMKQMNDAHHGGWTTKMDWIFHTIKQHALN

SMILES | IC50 [1] | Activity [2] | growth inhibition (GI) (HCT-116) | IC50 (HCT-116) | growth inhibition (GI) (MCF7) | IC50 (MCF7)
O=C1CCCN1C(c1ccc(F)cc1)c1c(O)ccc2ccccc12 (centres undefined) | ≥ 0.05 µM | 83% | 60.92% | 6.98 µM | 80.23% | 0.981 µM
COc1ccccc1C(c1c(O)ccc2ccccc12)N1CCCC1=O (centres undefined) | ≥ 25 µM | 22% | inactive |  | 21.81% | 92.1 µM
O=C1CCCN1C(c1ccc(Cl)cc1)c1c(O)ccc2ccccc12 (centres undefined) | < 25 µM | 42% | inactive |  | 23.14% | 92.2 µM
N#Cc1ccc(C(c2c(O)ccc3ccccc23)N2CCCC2=O)cc1 (centres undefined) | ≥ 25 µM | 28% | inactive |  | 33.41% | 80.3 µM
O=C1CCCN1C(c1cccc2ccccc12)c1c(O)ccc2ccccc12 (centres undefined) | < 5 µM | 59% | 36.14% | 24.8 µM | 60.46% | 4.47 µM
COC[C@H]1OC(=O)c2coc3c2[C@@]1(C)C1=C(C3=O)[C@@H]2CCC(=O)[C@@]2(C)C[C@H]1OC(C)=O |  | 76% |  |  |  | 
O=C1CCCN1C(c1ccccc1)c1c(O)ccc2ccccc12 (centres undefined) | ≥ 25 µM | 32% | inactive |  | 25.46% | 82.2 µM
O=C1CCCN1C(c1cccs1)c1c(O)ccc2ccccc12 (centres undefined) | ≥ 25 µM | 24% | inactive |  | 30.01% | 81.1 µM
O=C1CCCN1C(c1ccccc1Cl)c1c(O)ccc2ccccc12 (centres undefined) | ≥ 5 µM | 55% | 40.12% | 26.6 µM | 55.01% | 6.58 µM
O=C1CCCN1C(c1ccc(O)cc1)c1c(O)ccc2ccccc12 (centres undefined) | ≥ 25 µM | 28% | 28.14% | 31 µM | 30.98% | 31 µM
COc1cccc(C(c2c(O)ccc3ccccc23)N2CCCC2=O)c1 (centres undefined) | ≥ 15 µM | 46% | 24.55% | 15.2 µM | 39.71% | 15.2 µM
O=C1CCCN1C(c1ccccc1F)c1c(O)ccc2ccccc12 (centres undefined) | ≥ 5 µM | 56% | 37.38% | 14.8 µM | 60.38% | 4.81 µM
O=C1CCCN1C(c1ccc(Br)cc1)c1c(O)ccc2ccccc12 (centres undefined) | ≥ 15 µM | 44% | 20.22% | 17.6 µM | 41.22% | 16.6 µM
COc1cccc2c1C(=O)c1c(O)c3c(c(O)c1C2=O)C[C@@](O)(C(=O)CO)C[C@@H]3O[C@H]1C[C@H](N)[C@H](O)[C@H](C)O1 [DOXORUBICIN] |  |  | inactive |  | 77.98% | 
Cc1ccc(C(c2c(O)ccc3ccccc23)N2CCCC2=O)cc1 (centres undefined) | < 5 µM | 52% | 26.28% | 24.8 µM | 56.46% | 4.81 µM
O=C1CCCN1C(c1ccc(Cl)cc1Cl)c1c(O)ccc2ccccc12 (centres undefined) | < 1 µM | 62% | 28.26% | 14.2 µM | 61.71% | 4.23 µM
O=C1CCCN1C(c1ccc(O)cc1O)c1c(O)ccc2ccccc12 (centres undefined) | ≥ 25 µM | 22% | inactive |  | 35.02% | 84.7 µM
O=C1CCCN1C(c1ccccc1Br)c1c(O)ccc2ccccc12 (centres undefined) | ≥ 0.05 µM | 79% | 48.12% | 12.9 µM | 76.06% | 1.03 µM
COc1ccc(C(c2c(O)ccc3ccccc23)N2CCCC2=O)cc1 (centres undefined) | ≥ 10 µM | 38% | 56.44% | 12 µM | 38.98% | 12 µM
